Assay results as given in patent US20260015352A1, “METHYLTRANSFERASE INHIBITOR AND USE THEREOF” (CYTOSINLAB THERAPEUTICS CO., LTD., priority 2022, published 2026).

Test system: G401 cells
Assay: G401 ELISA test
Assay type: cell-based
Conditions: Homo sapiens, G-401; G401 cells treated with compounds for 72 hours; ELISA detecting K27 and H3; read-out: G401_ELISA IC50
Protocol: • Plate Reader: Envision (Perkinelmner); plate shaker: IKA MTS 2/4; plate Washer: BioTek microplate wisher 405 select; Cell counter: Counterstar (Ruiyu-biotech); Cell culture incubator: MCO-15AC (ThermoFisher); Pipette: BioHit Multichannel. Pipette: 0.2-10 μL, 10-300 μL, 50-1200 μL; Centrifuge: Thermo Centrifuge ST 40R; Pure water system: Millipore Milli-Q Reference system; Refrigerator: Haier −80 degree, −20 degree, and 4-degree refrigerators; cell cryopreservation box: Mr. Frosty™ Gradient Cooling Box Cat #5100-0001
• McCoys 5A (Modified) culture medium (ATCC); FBS (Gibco); 0.25% Trypsin/EDTA (Gibco); PBS (Hyclone); Penicillin/Streptomycin(100×) (Gibco); DMSO (Sigma); 384 cell culture plate (Corning); 384 detection plate (Greiner); 96 well plate (compound dilution) (Haimen, Qunchao); T75 Cell Culture Bottle (Corning)
G401 cells were seeded in a 384-well cell culture plate and incubated overnight at 37° C. in a 5% CO2 cell culture incubator, after which the cells were treated with compounds of different concentrations for 72 hours. The 384-well cell culture plate was taken out and upside down in a centrifuge to centrifugeat 300 rpm for 1 minute. After centrifugation, the 384-well cell culture plate was washed twice with PBS, added with lysis solution and lysed for 60 minutes. Then neutralization buffer was added for mixing and incubation was continued for 30 minutes. 20 ul (for detecting K27) and 10 ul (for detecting H3) of cell lysate were extracted from the 384-well cell culture plate and transferred to a 384 ELISA detection plate and incubate overnight at 4° C. The next day, the 384 ELISA plate was taken out and washed 5 times with TBST in a microplate washer. Then, the plate was added with a blocking solution and sealed at room temperature for 1 hour. The blocking solution was discarded and the primary antibody was added and then the plate was incubated at room temperature for 1 hour. After incubation, the plate was washed with TBST 5 times in a microplate washer, then added with secondary antibody and incubated at room temperature for 1 hour. After incubation, the plate was washed with TBST 5 times in a microplate washer, and finally added with color developer for color development. The plate was read with Envision plate reader. The obtained data was converted into inhibition rate using the following calculation method: % Inhibition rate=100−100*(compound absorbance−positive control absorbance)/(negative control absorbance−positive control absorbance), and then the inhibition rate data was subjected to curve fitting using the “logarithmic (inhibitor) and reaction-variable slope (four parameters)” model in GraphPad Prism 5 software.
The inhibition rate of the compound was calculated as follows: […]
The compounds of the present invention were tested according to the above experimental method, and some results were shown in Table 3. The test results were classified by A, B, and C, wherein A represents IC50≤0.1 uM; B represents 0.1 uM<IC50≤1 uM; C represents IC50>1 uM

| Compound | IC50 [µM] |
| --- | --- |
| O=C(Cc1cnc(NCC23CCC(Nc4ccc5ccnc(Cl)c5n4)(CC2)CC3)nc1)NC1COC1 [PA046, 2-[2-[[4-[(8-chloro-1,7-naphthyridin-2-yl)amino]-1-bicyclo[2.2.2]octyl]methylamino]pyrimidin-5-yl]-N-(oxetan-3-yl)acetamide] | ≤ 0.1 |
| C[C@H](Nc1ncc(C=CC2CS(=O)(=O)C2)cn1)C12CCC(Nc3ccc4ccnc(Cl)c4n3)(CC1)CC2 [PA164] | ≤ 0.1 |
| COc1nccc2ccc(Nc3ccc([C@H](C)Nc4ncc(CNCCS(C)(=O)=O)cn4)cc3F)nc12 [PA260] | ≤ 0.1 |
| COc1nccc2cnc(Nc3ccc(CNc4ncc(CC(=O)NC5COC5)cn4)cc3)nc12 [PA254] | > 1 |
| C[C@H](Nc1ncc(C(O)C(=O)NC2COC2)cn1)C12CCC(Nc3ccc4ccnc(Cl)c4n3)(CC1)CC2 (some centres unmarked) [PA174] | ≤ 0.1 |
| COc1nccc2ccc(Nc3ccc([C@H](C)Nc4ncc(CNC5C[S+]([O-])C5)cn4)cc3F)nc12 (some centres unmarked) [PA175] | ≤ 0.1 |
| O=C(Cc1ccc(NCC23CCC(Nc4ccc5ccnc(Cl)c5n4)(CC2)CC3)nc1)NC1COC1 [PA228] | 0.1 to 1 |
| COc1nccc2ccc(Nc3ccc([C@H](C)Nc4ncc(C=CC5CCS(=O)(=O)CC5)cn4)cc3F)nc12 [PA213] | 0.1 to 1 |
| COc1nccc2ccc(Nc3ccc(CNc4ncc(CC(=O)NC5COC5)cn4)cc3F)nc12 [PA153] | ≤ 0.1 |
| COc1nccc2ccc(Nc3ccc([C@H](C)Nc4ncc(CC(=O)NC5CS(=O)(=O)C5)cn4)cc3F)nc12 [PA212] | 0.1 to 1 |
| Cn1ccc2ccc(Nc3ccc(CNc4ncc(CC(=O)NC5COC5)cn4)cc3)nc2c1=O [PA255] | > 1 |
| COc1nccc2ccc(Nc3ccc(C(C)Nc4ncc(CC(=O)NC5COC5)cn4)cc3F)nc12 (centres unmarked) [PA204] | ≤ 0.1 |
| CNC(=O)C(NC1CS(=O)(=O)C1)c1cnc(N[C@@H](C)C23CCC(Nc4ccc5ccnc(Cl)c5n4)(CC2)CC3)nc1 (some centres unmarked) [PA162] | ≤ 0.1 |
| CC(C(=O)NCCC#N)c1cnc(N[C@@H](C)C23CCC(Nc4ccc5ccnc(Cl)c5n4)(CC2)CC3)nc1 (some centres unmarked) [PA191] | ≤ 0.1 |
| COc1nccc2ccc(Nc3ccc([C@H](C)Nc4ncc(N(C)C(=O)NC5COC5)cn4)cc3F)nc12 [PA217] | 0.1 to 1 |
| COc1nccc2ccc(Nc3ccc([C@H](C)Nc4ncc(C(C)C5CCS(=O)(=O)CC5)cn4)cc3F)nc12 (some centres unmarked) [PA262] | ≤ 0.1 |
| O=C(Nc1ccc(NCC23CCC(Nc4ccc5ccnc(Cl)c5n4)(CC2)CC3)nc1)NC1COC1 [PA250] | > 1 |
| COc1nccc2ccc(Nc3ccc([C@H](C)Nc4ccc(NC(=O)NC5COC5)cn4)cc3F)nc12 [PA238] | 0.1 to 1 |
| COc1nccc2ccc(Nc3ccc([C@H](C)Nc4ncc(CCN(C)C5CC(F)(F)C5)cn4)cc3F)nc12 [PA235] | 0.1 to 1 |
| COc1nccc2ccc(Nc3ccc(CNc4ncc(CNCc5cn[nH]c5)cn4)cc3F)nc12 [PA234] | 0.1 to 1 |
| COc1nccc2ccc(Nc3ccc([C@H](CO)Nc4ncc(CC(=O)NC5COC5)cn4)cc3F)nc12 [PA218] | 0.1 to 1 |

| Compound | IC50 [µM] |
| --- | --- |
| COc1nccc2ccc(Nc3ccc([C@@H](CO)Nc4ncc(CC(=O)NC5COC5)cn4)cc3F)nc12 [PA256] | > 1 |
| O=C(Cc1cnc(NCc2ccc(Nc3ccc4ccncc4n3)cc2)nc1)NC1COC1 [PA048] | > 1 |
| COc1nccc2ccc(NC34CCC(CNc5ncc(C(C)C(=O)NC6COC6)cn5)(CC3)CC4)nc12 (centres unmarked) [PA076] | ≤ 0.1 |
| C[C@H](Nc1ncc(CNCc2cnoc2)cn1)C12CCC(Nc3ccc4ccnc(Cl)c4n3)(CC1)CC2 [PA188] | ≤ 0.1 |
| O=C(Cc1cnc(NCc2ccc(Nc3ccc4ccnc(Cl)c4n3)cc2)nc1)NC1COC1 [PA010] | 0.1 to 1 |
| C[C@H](Nc1ncc(CNC2CS(=O)(=O)C2)cn1)C12CCC(Nc3ccc4ccnc(Cl)c4n3)(CC1)CC2 [PA165] | ≤ 0.1 |
| COc1nccc2ccc(Nc3ccc(CNc4ncc(CC(=O)NC5COC5)cn4)c(F)c3)nc12 [PA034] | ≤ 0.1 |
| C[C@H](Nc1ncc(CC2CCS(=O)(=O)CC2)cn1)C12CCC(Nc3ccc4ccnc(Cl)c4n3)(CC1)CC2 [PA187] | ≤ 0.1 |
| CCN(Cc1cnc(N[C@@H](C)c2ccc(Nc3ccc4ccc(C)c(Cl)c4n3)c(F)c2)nc1)C1CS(=O)(=O)C1 [PA267] | ≤ 0.1 |
| COc1nccc2ccc(Nc3ccc(CNc4ncc(CC(=O)N5CCOCC5)cn4)cc3F)nc12 [PA226] | 0.1 to 1 |
| COc1nccc2ccc(Nc3ccc([C@H](C)Nc4ncc(CC(=O)NC5COC5)cn4)cc3F)nc12 [PA193] | ≤ 0.1 |
| COc1nccc2ccc(Nc3ccc([C@H](C)Nc4ncc(CN5CCN(S(C)(=O)=O)CC5)cn4)cc3F)nc12 [PA189] | ≤ 0.1 |
| O=C(Cc1cnc(NC(CO)C23CCC(Nc4ccc5ccnc(Cl)c5n4)(CC2)CC3)nc1)NC1COC1 (centres unmarked) [PA264] | ≤ 0.1 |
| COc1nccc2ccc(Nc3ccc([C@H](C)Nc4ncc(CNC5CC(C#N)C5)cn4)cc3F)nc12 (some centres unmarked) [PA196] | ≤ 0.1 |
| CC(Nc1ncc(CC(=O)N(CCC#N)C2COC2)cn1)C12CCC(Nc3ccc4ccnc(Cl)c4n3)(CC1)CC2 (centres unmarked) [PA171] | ≤ 0.1 |
| COCCNC(=O)Cc1cnc(NCc2ccc(Nc3ccc4ccnc(OC)c4n3)cc2)nc1 [PA152] | 0.1 to 1 |
| Cc1ccc2ccc(NC34CCC(C(C)Nc5ncc(CC(=O)NC6COC6)cn5)(CC3)CC4)nc2c1Cl (centres unmarked) [PA183] | ≤ 0.1 |
| COc1nccc2ccc(Nc3ccc([C@H](C)Nc4ncc(CCNC5CC(F)(F)C5)cn4)cc3F)nc12 [PA223] | 0.1 to 1 |
| CC(C(=O)N(CCC#N)C1COC1)c1cnc(N[C@@H](C)C23CCC(Nc4ccc5ccnc(Cl)c5n4)(CC2)CC3)nc1 (some centres unmarked) [PA177] | ≤ 0.1 |
| COc1nccc2ccc(Nc3ccc(CNc4ncc(CNCc5cnco5)cn4)cc3F)nc12 [PA203] | ≤ 0.1 |
| COc1nccc2ccc(Nc3ccc(CNc4ncc(CN5CCS(=O)(=O)CC5)cn4)cc3F)nc12 [PA259] | ≤ 0.1 |

| Compound | IC50 [µM] |
| --- | --- |
| COc1nccc2ccc(NC34CCC(CNc5ncc([C@@H](C)C(=O)NC6COC6)cn5)(CC3)CC4)nc12 [PA077] | ≤ 0.1 |
| COc1nccc2ccc(Nc3ccc(CNc4ncc(CNCc5ccon5)cn4)cc3F)nc12 [PA221] | 0.1 to 1 |
| COc1nccc2ccc(Nc3ccc(CNc4ncc(CC(=O)N5CCC(C#N)CC5)cn4)cc3F)nc12 [PA224] | 0.1 to 1 |
| COc1nccc2ccc(Nc3ccc([C@H](C)Nc4ncc(CNC5CCS(=O)(=O)CC5)cn4)cc3F)nc12 [PA261] | ≤ 0.1 |
| COc1nccc2ccc(Nc3ccc(CNc4ncc(CNCc5cnoc5)cn4)cc3F)nc12 [PA198] | ≤ 0.1 |
| COc1nccc2ccc(Nc3ccc(CNc4ncc(N5CCC(OC)C5)cn4)cc3F)nc12 (centres unmarked) [PA244] | > 1 |
| COc1nccc2ccc(Nc3ccc(CNc4ncc(CC(N)=O)cn4)cc3F)nc12 [PA231] | 0.1 to 1 |
| C[C@H](C(=O)NC1COC1)c1cnc(NCc2ccc(Nc3ccc4ccnc(Cl)c4n3)cc2)nc1 [PA054] | 0.1 to 1 |
| COc1nccc2ccc(Nc3ccc([C@H](C)Nc4ncc(CNC5CS(=O)(=O)C5)cn4)cc3F)nc12 [PA172] | ≤ 0.1 |
| COc1nccc2ccc(Nc3ccc(CNc4cnc(C(C)(C)C(=O)NC5COC5)cn4)cc3)nc12 [PA038] | > 1 |
| COc1nccc2ccc(Nc3ccc([C@H](C)Nc4ncc(CCc5cc(C#N)n[nH]5)cn4)cc3F)nc12 [PA219] | 0.1 to 1 |
| COc1nccc2ccc(Nc3ccc([C@H](C)Nc4ncc(CNCC5CC(F)(F)C5)cn4)cc3F)nc12 [PA240] | 0.1 to 1 |
| COc1nccc2ccc(NC34CCC([C@H](C)Nc5ncc(C(C)C(=O)NC6COC6)cn5)(CC3)CC4)nc12 (some centres unmarked) [PA168] | ≤ 0.1 |
| COc1nccc2ccc(Nc3ccc(CNc4ncc(CC(=O)NC5COC5)cn4)cc3)cc12 [PA066] | > 1 |
| COc1nccc2ccc(NC34CCC(C(C)Nc5ncc(CC(=O)NC6COC6)cn5)(CC3)CC4)nc12 (centres unmarked) [PA180] | ≤ 0.1 |
| COc1nccc2ccc(Nc3ccc(CNc4ncc(CNCCO)cn4)cc3F)nc12 [PA242] | > 1 |
| COc1ccc2ccc(Nc3ccc(CNc4ncc(CC(=O)NC5COC5)cn4)cc3)nc2n1 [PA073] | > 1 |
| Cc1ccc2ccc(Nc3ccc([C@H](C)Nc4ncc(CN(CC(=O)O)C5CS(=O)(=O)C5)cn4)cc3F)nc2c1Cl [PA268] | ≤ 0.1 |
| C[C@H](Nc1ncc(CC(=O)NC2COC2)cn1)C12CCC(Nc3ccc4ccnc(Cl)c4n3)(CC1)CC2 [PA176] | ≤ 0.1 |
| C[C@H](Nc1ncc(CNC2CS(=O)(=O)C2)cn1)c1ccc(Nc2ccc3ccnc(Cl)c3n2)c(F)c1 (single isomer, unassigned) [PA248] | > 1 |
